Drawing on ChEMBL document CHEMBL2029287, “Synthesis, study on anti-arthritic, anti-inflammatory activity and toxicity of some novel bis-oxy cyclophane diamides” (Bioorg Med Chem Lett, 2012), this text covers inhibition, Activity and Ratio for 13 molecules.

A short description of data set [1]: In vitro antiarthritic activity assessed as inhibition of bovine serum albumin denaturation at 100 ug/mL incubated for 20 mins at 37 degC following rise in temperature up to 57 degC for 3 mins by UV-Visible spectrophotometry. The class given is functional.
Data set [2] is described as follows: Antiinflammatory activity in human RBC assessed as membrane stabilization at 200 ug/mL after 30 mins by UV-Visible spectrophotometry. The class given is functional, Erythrocyte.
For data set [3], the system named is Erythrocyte. Description: Antiinflammatory activity in human RBC assessed as membrane stabilization after 30 mins by UV-Visible spectrophotometry. Format: functional.
Data set [4] is described as follows: In vitro antiarthritic activity assessed as inhibition of bovine serum albumin denaturation at 50 ug/mL incubated for 20 mins at 37 degC following rise in temperature up to 57 degC for 3 mins by UV-Visible spectrophotometry. Format: functional.
Data set [5] can be described thus: Antiinflammatory activity in human RBC assessed as membrane stabilization at 10 ug/mL after 30 mins by UV-Visible spectrophotometry. The class given is functional, Erythrocyte.
A short description of data set [6]: In vitro antiarthritic activity assessed as inhibition of bovine serum albumin denaturation at 400 ug/mL incubated for 20 mins at 37 degC following rise in temperature up to 57 degC for 3 mins by UV-Visible spectrophotometry. Format: functional.
Data set [7] can be described thus: In vitro antiarthritic activity assessed as inhibition of bovine serum albumin denaturation at 800 ug/mL incubated for 20 mins at 37 degC following rise in temperature up to 57 degC for 3 mins by UV-Visible spectrophotometry. The class given is functional.
A short description of data set [8]: Antiinflammatory activity in human RBC assessed as membrane stabilization at 50 ug/mL after 30 mins by UV-Visible spectrophotometry. The class given is functional, Erythrocyte.
Data set [9] is described as follows: In vitro antiarthritic activity assessed as inhibition of bovine serum albumin denaturation incubated for 20 mins at 37 degC following rise in temperature up to 57 degC for 3 mins by UV-Visible spectrophotometry. The class given is functional.
Data set [10] can be described thus: In vitro antiarthritic activity assessed as inhibition of bovine serum albumin denaturation at 200 ug/mL incubated for 20 mins at 37 degC following rise in temperature up to 57 degC for 3 mins by UV-Visible spectrophotometry. The class given is functional.
A short description of data set [11]: Antiinflammatory activity in human RBC assessed as membrane stabilization at 100 ug/mL after 30 mins by UV-Visible spectrophotometry. Format: functional, Erythrocyte.
The subject of data set [12] is Salmonella typhimurium. Description: Mutagenic activity in Salmonella typhimurium TA 98 assessed as increase in revertants at 0.012 to 1.660 mg/plate after 48 hrs by Ames test relative to control. The class given is toxicity, organism-based. Conditions: salmonella enterica subsp. enterica serovar typhimurium.
Data set [13] has as its system Salmonella typhimurium. Description: Mutagenic activity in Salmonella typhimurium TA 98 assessed as increase in revertants at 0.039 to 5 mg/plate after 48 hrs by Ames test relative to control. The class given is toxicity, organism-based. Conditions: salmonella enterica subsp. enterica serovar typhimurium.
The test system of data set [14] is Salmonella typhimurium. Description: Mutagenic activity in Salmonella typhimurium TA 100 assessed as increase in revertants at 0.012 to 1.660 mg/plate after 48 hrs by Ames test in presence of S9 liver fraction relative to control. Conditions: salmonella enterica subsp. enterica serovar typhimurium. The class given is toxicity, organism-based.
Data set [15] concerns Salmonella typhimurium. Description: Mutagenic activity in Salmonella typhimurium TA 98 assessed as increase in revertants at 0.039 to 5 mg/plate after 48 hrs by Ames test in presence of S9 liver fraction relative to control. Format: toxicity, organism-based. Conditions: salmonella enterica subsp. enterica serovar typhimurium. Background: The Ames test detects mutagens through reverse mutation in bacteria.

The subject of data set [16] is Salmonella typhimurium. Description: Mutagenic activity in Salmonella typhimurium TA 100 assessed as increase in revertants at 0.039 to 5 mg/plate after 48 hrs by Ames test relative to control. Conditions: salmonella enterica subsp. enterica serovar typhimurium. Format: toxicity, organism-based.
Data set [17] relates to Salmonella typhimurium. Description: Mutagenic activity in Salmonella typhimurium TA 100 assessed as increase in revertants at 0.012 to 1.660 mg/plate after 48 hrs by Ames test relative to control. Format: toxicity, organism-based. Conditions: salmonella enterica subsp. enterica serovar typhimurium.
The subject of data set [18] is Salmonella typhimurium. Description: Mutagenic activity in Salmonella typhimurium TA 98 assessed as increase in revertants at 0.012 to 1.660 mg/plate after 48 hrs by Ames test in presence of S9 liver fraction relative to control. Format: toxicity, organism-based. Conditions: salmonella enterica subsp. enterica serovar typhimurium.
The subject of data set [19] is Salmonella typhimurium. Description: Mutagenic activity in Salmonella typhimurium TA 100 assessed as increase in revertants at 0.039 to 5 mg/plate after 48 hrs by Ames test in presence of S9 liver fraction relative to control. The class given is toxicity, organism-based. Conditions: salmonella enterica subsp. enterica serovar typhimurium.

In the case of `O=C1NCc2ccc(cc2)-c2cccc(c2)-c2ccc(cc2)CNC(=O)c2cccc(c2)OCc2cccc(n2)COc2cccc1c2`, the inhibition (in general, the drop in the measured response relative to a control, in per cent) is 38.2% in data set [1]; 22% in [4]; 70% in data set [6]; 82.4% in [7]; “Dose-dependent effect” in data set [9]; 56.3% in data set [10]. The Activity was 95.1% in data set [2]; “Dose-dependent effect” in data set [3]; 70.23% in data set [5]; 76.93% in data set [8]; 84.73% in data set [11].
As to `O=C1NCc2ccc(cc2)-c2cccc(c2)-c2ccc(cc2)CNC(=O)c2cccc(c2)OCc2cccc(c2)COc2cccc1c2`, the inhibition in data set [1] is 44.8%; in [4], 19.4%; in [6], 78.3%; in [7], 90.5%; in data set [9], “Dose-dependent effect”; in [10], 63.4%. In addition, the Activity in data set [2] is 93.03%; in data set [3], “Dose-dependent effect”; in data set [5], 64.27%; in [8], 72.53%; in [11] it was 83.07%.
Regarding `O=C1NCc2ccc(cc2)-c2cccc(c2)-c2ccc(cc2)CNC(=O)c2cccc(c2)OCc2ccc(cc2)COc2cccc1c2`, the inhibition in data set [1] is 36.8%; in [4], 13.1%; in data set [6], 67.7%; in [7] it was 83.9%; in data set [9], “Dose-dependent effect”; in data set [10] it was 55.3%. For the same molecule, the Activity in data set [2] is 91.8%; in [3], “Dose-dependent effect”; in data set [5] it was 57.63%; in [8], 66.7%; in [11] it was 82.2%.
`O=C1COc2ccc3ccc(cc3c2)OCC(=O)NCc2ccc(cc2)-c2cccc(c2)-c2ccc(cc2)CN1`: the inhibition was 49.5% in data set [1]; 20.1% in data set [4]; 84.3% in data set [6]; 90.6% in data set [7]; “Dose-dependent effect” in data set [9]; 67.9% in data set [10]. Further, the Activity was 97.2% in data set [2]; “Dose-dependent effect” in [3]; 76.5% in data set [5]; 85.5% in [8]; 90.9% in data set [11].
Regarding `C[C@]12C=CC(=O)C=C1CC[C@@H]1[C@@H]2[C@@H](O)C[C@@]2(C)[C@H]1CC[C@]2(O)C(=O)CO` [PREDNISOLONE], the Activity in data set [2] amounted to 91.01%; in [5] it was 46.03%; in data set [8], 57.94%; in data set [11], 84.87%.
On to `O=C1NCc2ccc(cc2)-c2cccc(c2)-c2ccc(cc2)CNC(=O)c2cccc(c2)OCc2ccccc2-c2ccccc2COc2cccc1c2`, for which the Ratio entry in data set [12], in data set [13], in [14], in data set [15], in data set [16] and in data set [17] was “<= 2” each time. For the same molecule, the Ratio entry in data set [18] and in data set [19] was “<= 2” each time. The inhibition in data set [1] is 49.5%; in [4], 39.2%; in [6], 75.7%; in [7], 87.8%; in [9], “Dose-dependent effect”; in [10], 67.8%. Moreover, the Activity in data set [2] is 93.3%; in [3], “Dose-dependent effect”; in data set [5], 70.27%; in data set [8], 82.6%; in data set [11] it was 91.2%.
Take `O=C1NCc2ccc(cc2)-c2cccc(c2)-c2ccc(cc2)CNC(=O)c2cccc(c2)OCc2cc(cc([N+](=O)[O-])c2)COc2cccc1c2`: the inhibition in [1] was 49.6%; in data set [4] it was 23.6%; in [6], 82.1%; in data set [7], 94.4%; in [9], “Dose-dependent effect”; in [10] it was 73.1%. Further, the Activity in [2] was 95.5%; in data set [3], “Dose-dependent effect”; in data set [5], 66.71%; in data set [8] it was 75.97%; in [11], 85.66%.
`O=C1NCc2ccc(cc2)-c2cccc(c2)-c2ccc(cc2)CNC(=O)c2cccc(c2)OCc2ccc(cc2)-c2cccc(c2)-c2ccc(cc2)COc2cccc1c2`: the Ratio entry in [12], in [13], in data set [14], in data set [15], in data set [16] and in [17] was “<= 2” throughout. Further, the Ratio result in data set [18] and in data set [19] was “<= 2” each time. Moreover, the inhibition in data set [1] is 25.2%; in data set [4], 12.6%; in data set [6], 68.6%; in data set [7] it was 78.2%; in data set [9], “Dose-dependent effect”; in data set [10], 48.5%. Also, the Activity in data set [2] is 91.59%; in data set [3], “Dose-dependent effect”; in data set [5] it was 61.89%; in [8] it was 71.74%; in [11], 82.51%.
As to `O=C1COc2cccc(c2)OCC(=O)NCc2ccc(cc2)-c2cccc(c2)-c2ccc(cc2)CN1`, the inhibition in data set [1] is 25.4%; in data set [4], 14.5%; in data set [6], 83.3%; in data set [7], 96.8%; in data set [9], “Dose-dependent effect”; in data set [10], 60.5%. The Activity in [2] is 96.4%; in data set [3], “Dose-dependent effect”; in data set [5], 74.5%; in [8], 85.4%.
As for `O=C1COc2ccccc2-c2ccccc2OCC(=O)NCc2ccc(cc2)-c2cccc(c2)-c2ccc(cc2)CN1`, the inhibition was 61.9% in data set [1]; 40.5% in [4]; 81.4% in data set [6]; 98.2% in data set [7]; “Dose-dependent effect” in data set [9]; 76.2% in data set [10]. The Activity in data set [2] is 96.03%; in [3] it was “Dose-dependent effect”; in data set [5], 74.2%; in [8], 85.65%; in data set [11], 93.77%.
With `O=C1NCc2ccc(cc2)-c2cccc(c2)-c2ccc(cc2)CNC(=O)c2cccc(c2)OCc2ccccc2COc2cccc1c2`, the inhibition in data set [1] was 50.1%; in data set [4], 25.4%; in data set [6] it was 81.9%; in data set [7] it was 92.4%; in data set [9], “Dose-dependent effect”; in data set [10] it was 72.1%. The Activity in data set [2] is 92.37%; in data set [3] it was “Dose-dependent effect”; in [5] it was 64.03%; in data set [8], 73.33%; in data set [11], 82.3%.
Take `O=C(O)Cc1ccccc1Nc1c(Cl)cccc1Cl`: the inhibition in data set [1] is 10.9%; in data set [4], 5.3%; in [6], 21.3%; in [7], 76.5%; in [10], 15%.
`O=C1COc2ccc3ccccc3c2-c2c(ccc3ccccc23)OCC(=O)NCc2ccc(cc2)-c2cccc(c2)-c2ccc(cc2)CN1`: the inhibition is 37% in [1]; 11.7% in data set [4]; 69.9% in data set [6]; 81.9% in data set [7]; “Dose-dependent effect” in data set [9]; 59.7% in data set [10]. In addition, the Activity in data set [2] was 97.7%; in [3] it was “Dose-dependent effect”; in [5] it was 77.3%; in data set [8], 86.2%; in data set [11], 90.6%.
